Laboratory results reported in patent US20250136658A1, “ANTICONVULSANT AND NEUROPROTECTIVE AGENT” (THE UAB RESEARCH FOUNDATION, priority 2022, published 2025).
Values belong to the molecule of their own block, whether it stands above or below them.

What was measured:
[1] = molecular target: T1, GST-Nrb331-453 and [35S]-labeled A1R202-326 (A1R-neurabin interaction) (Homo sapiens, UniProt Q9ULJ8); assay: In vitro GST competition pull-down; type: binding; conditions: peptide 0.1 μg/μl
T1 construct: made in house
T1 sequence (Q9ULJ8 331-453): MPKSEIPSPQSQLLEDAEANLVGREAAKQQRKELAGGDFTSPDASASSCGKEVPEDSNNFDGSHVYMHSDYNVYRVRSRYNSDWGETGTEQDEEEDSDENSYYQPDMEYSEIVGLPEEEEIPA
Text: FIG. 5A is a competition pull-down assay testing the abilities of A1R 3i loop (3iL) and C-tail (CT) peptides in blocking the interaction between GST-Nrb331-453 and [^35S]-labeled A1R202-326. […] A1R202-326 pulled down by GST-Nrb331-453. Free probe represents 1/10 of the input in each reaction.
FIG. 5B is a competition pull-down assay testing the abilities of A1R 3i loop (3iL) and C-tail (CT) peptides in blocking the interaction between GST-Nrb331-453 and [^35S]-labeled A1R202-326. In the graphical representation, quantitation of the amount of [^35S] A1R202-326 pulled down by GST-Nrb331-453 is shown. Free probe represents 1/10 of the input in each reaction. * represents p<0.05 vs. BSA control by one-way ANOVA Dunnett's multiple comparisons test. N=3/group.
Preparation of GST fusion proteins, synthesis of [^35S]-labeled in vitro translated probes, and pull-down assays were performed as described previously (See, for example, Chen Y, Booth C, Wang H, Wang R X, Terzi D, Zachariou V, et al. Effective Attenuation of Adenosine A1R Signaling by Neurabin Requires Oligomerization of Neurabin. Mol Pharmacol. 2017; 92 (6): 630-9; and Chen Y, Liu Y, Cottingham C, McMahon L, Jiao K, Greengard P, et al. Neurabin scaffolding of adenosine receptor and RGS4 regulates anti-seizure effect of endogenous adenosine. J Neurosci. 2012, 32 (8): 2683-95). […]

[2] = tested on: hippocampal CA3-CA1 synapses; assay: fEPSP recording in acute hippocampal slices; type: cell-based, mice
[3] = tested on: primary hippocampal neurons; assay: Glutamate-induced cell death in primary hippocampal neurons; type: cell-based, mice; conditions: 100 μM glutamate plus 10 μM R-PIA
Description: Primary hippocampal culture was performed as described previously (Chen Y, Liu Y, Cottingham C, McMahon L, Jiao K, Greengard P, et al. Neurabin scaffolding of adenosine receptor and RGS4 regulates anti-seizure effect of endogenous adenosine. J Neurosci. 2012, 32 (8): 2683-95). […] In brief, hippocampal neurons were cultured in 24-well plates for 13-14 days in vitro and treated with (1) vehicle, (2) 100 μM glutamate alone, (3) 100 μM glutamate plus 10 μM R-PIA, (4) 100 μM glutamate, 10 μM R-PIA, plus 30 μM LY294002, for 30 min at 37° C. Neurons were then washed twice, and incubated with regular growth medium at 37° C. for an additional 24 hrs. Neurons were stained with 4 μM calcein-AM and 4 μM EthD-1 in DPBS and mounted for imaging under a fluorescence microscope.

[4] = tested on: Akt phosphorylation at Thr 308; assay: A1R-mediated Akt activation in primary hippocampal neurons (Western blot); type: cell-based, mice
Description: Primary hippocampal neurons derived from WT or neurabin deficiency (Ppp1r9a^−/−) mice were treated with R-PIA at the indicated concentrations. Representative blots of phospho-Akt (pAkt, Thr308) are shown.
Primary hippocampal neurons derived from WT or neurabin deficiency (Ppp1r9a^−/−) mice were treated with R-PIA at the indicated concentrations. Quantitation of phospho-Akt (pAkt, Thr308) is shown. *** represents p<0.001 by two-way ANOVA. N=4/group.
WT and Ppp1r9a^−/− neurons were stimulated with 1 μM R-PIA for the indicated time durations. Representative blots of pAkt are shown.
WT and Ppp1r9a^−/− neurons were stimulated with 1 μM R-PIA for the indicated time durations. Quantitation of pAkt is shown. * represents p<0.05; ** represents p<0.01; **** represents p<0.0001 by two-way ANOVA for multiple comparisons. N=4/group. Data are shown as mean±SEM.

kainate-induced seizures [5] = assay: Kainate-induced seizure in mice given peptide (icv or intranasal); type: in vivo
Description: Induction and evaluation of seizure were performed as described previously (See, for example, Chen Y, Liu Y, Cottingham C, McMahon L, Jiao K, Greengard P, et al. Neurabin scaffolding of adenosine receptor and RGS4 regulates anti-seizure effect of endogenous adenosine. J Neurosci. 2012, 32 (8): 2683-95). Ten to twelve week-old male mice were injected (i.p.) with kainate (Sigma) at 20 or 25 mg/kg (dissolved in saline), together with or without DPCPX (Sigma, 0.5 mg/kg in saline) or yohimbine (Sigma, 0.5 mg/kg in saline). Seizure severity was scored by trained observers blind to genotype and/or treatment. The severity of seizure behaviors was scored on a scale of 0 to 7, with 0 representing normal behavior and 7 representing death (see, for example, Yang D D, Kuan C Y, Whitmarsh A J, Rincon M, Zheng T S, Davis R J, et al. Absence of excitotoxicity-induced apoptosis in the hippocampus of mice lacking the Jnk3 gene. Nature. 1997, 389 (6653): 865-70; and Cottingham C, Chen Y, Jiao K, and Wang Q. The antidepressant desipramine is an arrestin-biased ligand at the alpha (2A)-adrenergic receptor driving receptor down-regulation in vitro and in vivo. J Biol Chem. 2011, 286 (41): 36063-75). […] Seizure severity was scored every 4 min for 30 min. […]

kainate-induced seizures [6] = assay: Kainate-induced seizure in WT and Rgs4-/- mice; type: in vivo
Description: Induction and evaluation of seizure were performed as described previously (See, for example, Chen Y, Liu Y, Cottingham C, McMahon L, Jiao K, Greengard P, et al. Neurabin scaffolding of adenosine receptor and RGS4 regulates anti-seizure effect of endogenous adenosine. J Neurosci. 2012, 32 (8): 2683-95). Ten to twelve week-old male mice were injected (i.p.) with kainate (Sigma) at 20 or 25 mg/kg (dissolved in saline), together with or without DPCPX (Sigma, 0.5 mg/kg in saline) or yohimbine (Sigma, 0.5 mg/kg in saline). Seizure severity was scored by trained observers blind to genotype and/or treatment. The severity of seizure behaviors was scored on a scale of 0 to 7, with 0 representing normal behavior and 7 representing death (see, for example, Yang D D, Kuan C Y, Whitmarsh A J, Rincon M, Zheng T S, Davis R J, et al. Absence of excitotoxicity-induced apoptosis in the hippocampus of mice lacking the Jnk3 gene. Nature. 1997, 389 (6653): 865-70; and Cottingham C, Chen Y, Jiao K, and Wang Q. The antidepressant desipramine is an arrestin-biased ligand at the alpha (2A)-adrenergic receptor driving receptor down-regulation in vitro and in vivo. J Biol Chem. 2011, 286 (41): 36063-75). […] Seizure severity was scored every 4 min for 30 min.

PTZ-induced seizures = assay: PTZ-induced seizure in WT and neurabin null mice; type: in vivo
Description: Induction and evaluation of seizure were performed as described previously (See, for example, Chen Y, Liu Y, Cottingham C, McMahon L, Jiao K, Greengard P, et al. Neurabin scaffolding of adenosine receptor and RGS4 regulates anti-seizure effect of endogenous adenosine. J Neurosci. 2012, 32 (8): 2683-95). Ten to twelve week-old male mice were injected (i.p.) with kainate (Sigma) at 20 or 25 mg/kg (dissolved in saline), together with or without DPCPX (Sigma, 0.5 mg/kg in saline) or yohimbine (Sigma, 0.5 mg/kg in saline). Seizure severity was scored by trained observers blind to genotype and/or treatment. The severity of seizure behaviors was scored on a scale of 0 to 7, with 0 representing normal behavior and 7 representing death (see, for example, Yang D D, Kuan C Y, Whitmarsh A J, Rincon M, Zheng T S, Davis R J, et al. Absence of excitotoxicity-induced apoptosis in the hippocampus of mice lacking the Jnk3 gene. Nature. 1997, 389 (6653): 865-70; and Cottingham C, Chen Y, Jiao K, and Wang Q. The antidepressant desipramine is an arrestin-biased ligand at the alpha (2A)-adrenergic receptor driving receptor down-regulation in vitro and in vivo. J Biol Chem. 2011, 286 (41): 36063-75). To induce seizures with pentylenetetrazole (PTZ), mice were injected (i.p.) with PTZ at 40 mg/kg (dissolved in saline), with or without 8-Cyclopentyl-1,3-dipropylxanthine (DPCPX). Seizure severity was scored every 4 min for 30 min.

[7] = tested on: spontaneous epileptic spikes in APP/PS1 mice; assay: EEG recording of spontaneous epileptic activity in APP/PS1 mice; type: in vivo; conditions: intranasal peptide plus i.p. DPCPX
Description: Implantation of electrodes for EEG recordings was performed under isoflurane anesthesia (4.5% for induction, approximately 2% for maintenance). In brief, 1 mm stainless steel electrodes (P1 Technologies, Roanoke, VA) were implanted into the primary somatosensory cortex at 1.8, 0.02, 1 (AP, ML, DV), and reference electrodes anterior to the bregma were implanted subdurally through small holes drilled in the skull. These electrodes were held in place with Dental cement kit (Stoelting), C&B Metabond Quick Adhesive Cement System (Parkell). The ground electrode was sutured in the cervical paraspinous area. […] EEG activity was recorded for 20 hrs using Biopac Systems amplifiers (Biopac Systems EEG100C) and AcqKnowledge 4.2 EEG Acquisition and analyzed with the Reader Software (Biopac Systems).
A total of 150 hrs of data was analyzed, 54 hrs for nTg mice and 96 hrs for APP/PS1 transgenic mice. Six hrs of recording were analyzed for each animal. […] When p-operator algorithm detected a spike, all signals were visually inspected to include in the analysis only those that were true positives in order to avoid non-epileptic artifacts caused by electrical noise (e.g., grooming) during spike selection. Spectral content of EEG signals were calculated using short-time Fourier transform (FFT).

direct interaction of A1R (aa202-326) with Nrb331-453 [1]: no effect
Molecule: 3i loop peptide: peptide carrying the sequence of the A1R 3i loop (aa202-235) (EVFYLIRKQLNKKVSASSGDPQKYYGKELKIAKS; UniProt P30542 202-235, looked up, fragment)

Molecule: CC(Cc1ccccc1)Nc1ncnc2c1ncn2[C@@H]1O[C@H](CO)[C@@H](O)[C@H]1O (single isomer, unassigned; (-)) [R-PIA, (−)-N6-(2-Phenylisopropyl) adenosine]
inhibition of baseline transmission ([2]; WT mice slices, 100 nM): about 75%
inhibition of fEPSP ([2]; WT mice slices, 10, 30, 100 nM): dose-dependently inhibited
inhibition of fEPSP vs WT slices ([2]; slices from Ppp1r9a-/- or Rgs4-/- mice, same concentration (10 nM, FIG. 2E-F)): significantly higher level of inhibition
effect on glutamate-induced neuronal death [3]: protective effect
Akt phosphorylation at Thr 308 ([4]; WT neurons): dose-dependent increase
Akt activation over time ([4]; WT neurons, 1 μM R-PIA): desensitized after 30 min stimulation
phospho-Akt levels at 30 min ([4]; neurons lacking neurabin, 1 μM R-PIA): no apparent reduction
Akt phosphorylation vs WT neurons ([4]; neurons lacking neurabin, same dose): significantly higher level of Akt phosphorylation

Molecule: CCCn1c(=O)c2[nH]c(C3CCCC3)nc2n(CCC)c1=O [DPCPX, 8-Cyclopentyl-1,3-dipropylxanthine]
anti-seizure effect of A1R-CT on co-treatment with DPCPX (kainate-induced seizures [5]; icv peptide): no longer observed
anti-seizure effect of TAT-A1R-CT peptide on co-treatment with DPCPX (kainate-induced seizures [5]; intranasal peptide): abolished
effect of A1R blockade on seizure severity and mortality rate (kainate-induced seizures [6]; Rgs4-/- mice, kainate plus DPCPX, to a level similar to WT): increased the seizure severity and mortality rate
PTZ-induced seizure severity on co-treatment with DPCPX (PTZ-induced seizures; WT and neurabin null mice, vs PTZ alone): continued to progress to a much more severe level
death after combined treatment with PTZ and DPCPX (PTZ-induced seizures; both genotypes (WT, Ppp1r9a-/-)): more than 55%
effect of TAT-A1R-CT on epileptic activities with DPCPX [7]: failed to reduce epileptic activities

Molecule: C1CCc2nnnn2CC1 [PTZ, pentylenetetrazole]
PTZ-induced lethality within 40 minutes (PTZ-induced seizures; WT mice, PTZ alone): About 10%

Molecule: C=C(C)[C@H]1CN[C@H](C(=O)O)[C@H]1CC(=O)O [kainate]
mortality after kainate (kainate-induced seizures [6]; WT mice, kainate 20 mg/kg): over 40%

direct interaction of A1R (aa202-326) with Nrb331-453 [1]: markedly reduced
Molecule: A1R-CT: peptide carrying the sequence of the A1R C-tail (aa293-326), without TAT fusion (QKFRVTFLKIWNDHFRCQPAPPIDEDLPEERPDD; UniProt P30542 293-326, looked up, fragment)
